According to patent publication US20150316548A1, “PROGRANULIN AS MARKER FOR AUTOIMMUNE DISORDERS” (UNIVERSITAET DES SAARLANDES, priority 2012, published 2015):
Entries after “also recorded” stand apart in the source; their conditions may differ.

Tests used:
[1] = system: hyperphosphorylation of progranulin at Ser81 in lymphoblastoid cell lines (LCL); experiment: Kinase inhibitors added to cultured lymphoblastoid cell lines (LCL), progranulin isoforms read by IEF and immunoblot; format: cell-based, human; details: for hyperphosphorylated progranulin isoform in IEF: LCL culture
Protocol: Lymphoblastoid cell lines (LCLs) were established by infection of PBMCs with EBV as described before.
(§1) Isoelectric focusing was performed as described before. In short, whole blood cell extracts or extracts of LCLs were washed and treated with lysis buffer (8 M urea, 0.1 M NaH2PO4, 0.01 M Tris HCl, 0.1% NP40). Following to this, isoelectric focusing was performed (pH 3-10, Invitrogen) according to the manufacturer's protocol (1 hour 100 V, 1 hour 200 V, and 30 minutes 500 V). After semi-dry blotting on PVDF membranes (450 mA, 24V, 1 hour), patient's plasma was used for immunodetection of progranulin from whole blood cell lysates and murine anti-FLAG antibody (Sigma) was used at a dilution of 1:2,000 for immunodetection of progranulin from LCL lysates. These LCLs had been previously transfected with FLAG-tagged progranulin in pRTS. The membrane was blocked in TST/milk buffer (10% milk in 10 mM Tris/HCl, pH 7.5, 150 mM NaCl, 0.1% [v/v] Tween 20) overnight, washed, and incubated for 1 hour with plasma in TST or murine anti-FLAG-antibody. After 3 washings in TST, the membranes were incubated for 1 hour at room temperature with PDX-labeled goat anti-human IgG Ab (Dianova) diluted 1:5,000 or PDX-labeled anti-mouse IgG Ab (Biorad) in TST, subsequently washed in TST followed by ECL development. To perform IEF on different cell fractions, PBMCs and granulocytes were isolated by density double gradient centrifugation (Histopaque-1077 and -1119, Sigma). Monocytes, B-cells and T-cells were sorted with CD14, CD19 and CD3. Mucosa cells were obtained by swab from the oral cavities of patients and controls.
Stable transfected lymphoblastoid cell lines were cultured at 2×10e6 cells/ml in the presence of selected inhibitory compounds as indicated to narrow down the number of candidate kinases responsible for hyperphosphorylation at Ser81. […] After 3 days, cells were removed and analyzed by isoelectric focusing (IEF) and immunoblot detection. After the identification of PKC as the responsible kinase for the phosphorylation of serine 81, the same procedure was repeated with other selected inhibitory compounds to identify the subclass of PKC. The selected inhibitory compounds for the identification of the PKC subunit were: Staurosporin at […], 15 nM and 30 nM. Bisindolylmaleimide I (BIM I) at 1 nM, 5 nM, 10 nM and 20 nM, Rottlerin at 5 μM, 10 μM, 40 μM and 100 μM and the PKCβ-inhibitor at a concentration of 5 nm specifically for PKCβ-II and at a concentration of 21 nm for PKCβ-I and PKCβ-II.

[2] = system: phosphatase for progranulin's phosphorylated Ser81 in LCLs; experiment: Phosphatase inhibitors added to cultured LCLs, progranulin isoforms read by IEF; format: cell-based, human
Excerpt: FIG. 14 a) to b): Identification of PP1 as the responsible phosphatase. a) Phosphatase inhibitors at specific concentrations or DMSO only as control were administrated for three days to cultured LCLs derived from a healthy donor and from a patient with hyperphosphorylated progranulin. Subsequently LCL lysates were subjected to IEF. Lanes (1) and (4) show the IEF of the LCL from a healthy control and a progranulin-antibody positive patient cultured without phosphatase inhibitors. […] The further lanes show the administration of following phosphatase inhibitors to LCL-lysates from healthy controls (top) and from progranulin-antibody positive patients (bottom): 1) DMSO, 2) of serine/threonine inhibitor cocktail 1, 3) of NIPP1 at 10 pM, 4) of okadaic acid at 10 nM, 5) of okadaic acid at 0.1 nM and of okadaic acid at 500 nM.
as §1
To identify the responsible phosphatase for progranulin's phosphorylated Ser81 a panel of different phosphatase inhibitors was administered at specific concentrations to the cultured LCLs, which had been obtained from progranulin-antibody positive patients and from healthy controls with the aim to inhibit particular groups of phosphatases. This panel consisted of serine/threonine phosphatase inhibitor cocktail, tyrosine phosphatase inhibitor, okadaic acid at 500 nM, 10 nM, 0.1 nM and NIPP1 at 10 pM. Following to this, IEFs of the lysates of these LCLs were performed to check for possible differences in the phosphorylation state.

[3] = in vivo; cited from earlier work
[4] = system: hyperphosphorylated progranulin isoform; experiment: Treatment of sera / cell lysates with alkaline phosphatase before IEF; format: biochemical, human; details: samples of progranulin-antibody positive patients
Protocol: Treatment of whole blood cell lysates or LCL lysates with alkaline phosphatase was conducted in principal as previously described. FastAP thermo sensitive alkaline phosphatase (Fermentas) was used. In short LCLs were washed 3 times with PBS. The lysis was performed in a buffer of 10 mM Tris HCl pH 8 for 1 h at 4° C. Following to this the supplied FastAP-Buffer (10×Fast AP-Buffer: 100 mM Tris-HCl, pH 8.0, 50 mM MgCl2, 1 M KCl, 0.2% Triton X-100 and 1 mg/ml BSA) was added to the cell lysate. For 0.1 mg/ml lysed protein extract, 10 units of FastAP were utilized. After 1 h at 37° C., the alkaline phosphatase reaction was stopped by the addition of 50 mM EDTA. Equal volumes of sample and loading buffer were mixed, followed by IEF and immuno-detection.

CN(C)CCCn1cc(C2=C(c3c[nH]c4ccccc34)C(=O)NC2=O)c2ccccc21 [Bisindolylmaleimide I]
hyperphosphorylated progranulin isoform in IEF ([1]; inhibitor at 1 nM): didn't inhibit the hyperphosphorylation
hyperphosphorylated progranulin isoform in IEF ([1]; inhibitor at 5 nM): didn't inhibit the hyperphosphorylation
hyperphosphorylated progranulin isoform in IEF ([1]; inhibitor at 10 nM): didn't inhibit the hyperphosphorylation
hyperphosphorylated progranulin isoform in IEF ([1]; inhibitor at 20 nM): the hyper-phosphorylated isoform disappeared
hyperphosphorylated progranulin isoform in IEF ([1]; inhibitor at 20 nM, listed as Bis-indolyl-maleimide I): led to the disappearance of the hyperphosphorylated isoform

O=c1oc2c(O)c(O)cc3c(=O)oc4c(O)c(O)cc1c4c23 [Ellagic Acid]
electrical charge of the normal progranulin isoform in IEF ([1]; 10 pM, LCL of progranulin-antibody positive patients and of healthy controls): slight shift of the band of the normal progranulin isoform towards an electronically less negatively charged isoform
electrical charge of the normal progranulin isoform in IEF ([1]; 50 μM, LCL of a healthy control): change in the electrical charge of “normal” progranulin appeared as well
electrical charge of the normal progranulin isoform in IEF ([1]; 50 μM, LCL of a progranulin-antibody positive patient): change in the electrical charge
hyperphosphorylated progranulin isoform in IEF ([1]; inhibitor at 50 μM): disappearance of the hyperphosphorylated progranulin isoform

O=C1NC(=O)C(c2cn(CCCn3ccnc3)c3ccccc23)=C1Nc1ccccc1 [PKCβ-inhibitor]
hyperphosphorylated progranulin isoform in IEF ([1]; inhibitor at 21 nM): led to the disappearance of the hyperphosphorylated isoform

CC(=O)c1c(O)c(C)c(O)c(Cc2c(O)c3c(c(C(=O)/C=C/c4ccccc4)c2O)OC(C)(C)C=C3)c1O [Rottlerin]
hyperphosphorylated progranulin isoform in IEF ([1]; inhibitor at 5 μM): could not inhibit the phosphorylation of Ser81
hyperphosphorylated progranulin isoform in IEF ([1]; inhibitor at 10 μM): could not inhibit the phosphorylation of Ser81
hyperphosphorylated progranulin isoform in IEF ([1]; inhibitor at 40 μM): could not inhibit the phosphorylation of Ser81
hyperphosphorylated progranulin isoform in IEF ([1]; inhibitor at 100 μM): could not inhibit the phosphorylation of Ser81
hyperphosphorylated progranulin isoform in IEF ([1]; inhibitor at different concentrations): not possible to inhibit the responsible kinase

CN[C@@H]1C[C@H]2O[C@@](C)([C@@H]1OC)n1c3ccccc3c3c4c(c5c6ccccc6n2c5c31)C(=O)NC4 [Staurosporin]
electrical charge of the normal progranulin isoform in IEF ([1]; 2.5 pM, LCL of progranulin-antibody positive patients and of healthy controls): slight shift of the band of the normal progranulin isoform towards an electronically less negatively charged isoform
electrical charge of the normal progranulin isoform in IEF ([1]; 5 pM, LCL of progranulin-antibody positive patients and of healthy controls): slight shift of the band of the normal progranulin isoform towards an electronically less negatively charged isoform
electrical charge of the normal progranulin isoform in IEF ([1]; 2.5 μM, LCL of a healthy control): change in the electrical charge of “normal” progranulin appeared as well
electrical charge of the normal progranulin isoform in IEF ([1]; 2.5 μM, LCL of a progranulin-antibody positive patient): change in the electrical charge
electrical charge of the normal progranulin isoform in IEF ([1]; 5 μM, LCL of a healthy control): change in the electrical charge of “normal” progranulin appeared as well
electrical charge of the normal progranulin isoform in IEF ([1]; 5 μM, LCL of a progranulin-antibody positive patient): change in the electrical charge
hyperphosphorylated progranulin isoform in IEF ([1]; inhibitor at 10 nM): led only to the disappearance of the hyperphosphorylated progranulin isoform
hyperphosphorylated progranulin isoform in IEF ([1]; inhibitor at 15 nM): wasn't detectable
hyperphosphorylated progranulin isoform in IEF ([1]; inhibitor at 30 nM): wasn't detectable; also recorded: led only to the disappearance of the hyperphosphorylated progranulin isoform
hyperphosphorylated progranulin isoform in IEF ([1]; inhibitor at 2.5 μM): disappearance of the hyperphosphorylated progranulin isoform
hyperphosphorylated progranulin isoform in IEF ([1]; inhibitor at 5 μM): disappearance of the hyperphosphorylated progranulin isoform

C=C1[C@@H](O)[C@@H]2O[C@]3(CC[C@H](/C=C/[C@@H](C)[C@@H]4CC(C)=C[C@@]5(O[C@H](C[C@@](C)(O)C(=O)O)CC[C@H]5O)O4)O3)CC[C@H]2O[C@@H]1[C@@H](O)C[C@H](C)[C@H]1O[C@@]2(CCCCO2)CC[C@H]1C [okadaic acid]
normal and hyperphosphorylated progranulin isoforms in IEF ([2]; 0.1 nM (specific for PP2A), listed as ocadaic acid): didn't change the phosphorylation state
normal and hyperphosphorylated progranulin isoforms in IEF ([2]; 10 nM (specific for PP1)): led to the appearance of the hyperphosphorylated progranulin isoform and the disappearance of the normal progranulin isoform
normal and hyperphosphorylated progranulin isoforms in IEF ([2]; 10 nM (specific for PP1), listed as Ocadaic acid): led to the appearance of the hyperphosphorylated progranulin isoform
normal and hyperphosphorylated progranulin isoforms in IEF ([2]; 500 nM (0.5 μM)): led to the appearance of the hyperphosphorylated progranulin isoform and the disappearance of the normal progranulin isoform
normal and hyperphosphorylated progranulin isoforms in IEF ([2]; 500 nM (0.5 μM), listed as Ocadaic acid): led to the appearance of the hyperphosphorylated progranulin isoform

TNF-α
half-life [3]: about 20 min

alkaline phosphatase
additional (aberrantly charged) progranulin isoform in IEF after pretreatment [4]: disappearance of the additional progranulin isoform; also recorded: had lost the aberrantly charged progranulin isoform

B1: NIPP1: phosphatase inhibitor, at 10 pM specific for PP1 (protein, UniProt Q12972 1-351, looked up)
Nuclear inhibitor of protein …: MAAAANSGSSLPLFDCPTWAGKPPPGLHLDVVKGDKLIEKLIIDEKKYYLFGRNPDLCDFTIDHQSCSRVHAALVYHKHLKRVFLIDLNSTHGTFLGHIRLEPHKPQQIPIDSTVSFGASTRAYTLREKPQTLPSAVKGDEKMGGEDDELKGLLGLPEEETELDNLTEFNTAHNKRISTLTIEEGNLDIQRPKRKRKNSRVTFSEDDEIINPEDVDPSVGRFRNMVQTAVVPVKKKRVEGPGSLGLEESGSRRMQNFAFSGGLYGGLPPTHSEAGSQPHGIHGTALIGGLPMPYPNLAPDVDLTPVVPSAVNMNPAPNPAVYNPEAVNEPKKKKYAKEAWPGKKPTPSLLI
normal and hyperphosphorylated progranulin isoforms in IEF ([2]; 10 pM (specific for PP1)): led to the appearance of the hyperphosphorylated progranulin isoform and the disappearance of the normal progranulin isoform
